According to ChEMBL document CHEMBL6120968, “Discovery of Thiadiazoleamide Derivatives as Potent, Selective, and Orally Available Antagonists Disrupting Androgen Receptor Homodimer” (J Med Chem, 2024):
pIC50: −log10 of the molar value.

Tests used:
[1] = molecular target: Androgen receptor (Homo sapiens, UniProt P10275, F877L); assay: Antagonist activity at Androgen receptor F877L mutant in human HEK293T cells cotransfected with MMTV-luc and renilla plasmid incubated for 24 hrs by Dual luciferase assay; assay type: cell-based
Chain of Androgen receptor (Homo sapiens, UniProt P10275, F877L) (P10275 whole entry F877L): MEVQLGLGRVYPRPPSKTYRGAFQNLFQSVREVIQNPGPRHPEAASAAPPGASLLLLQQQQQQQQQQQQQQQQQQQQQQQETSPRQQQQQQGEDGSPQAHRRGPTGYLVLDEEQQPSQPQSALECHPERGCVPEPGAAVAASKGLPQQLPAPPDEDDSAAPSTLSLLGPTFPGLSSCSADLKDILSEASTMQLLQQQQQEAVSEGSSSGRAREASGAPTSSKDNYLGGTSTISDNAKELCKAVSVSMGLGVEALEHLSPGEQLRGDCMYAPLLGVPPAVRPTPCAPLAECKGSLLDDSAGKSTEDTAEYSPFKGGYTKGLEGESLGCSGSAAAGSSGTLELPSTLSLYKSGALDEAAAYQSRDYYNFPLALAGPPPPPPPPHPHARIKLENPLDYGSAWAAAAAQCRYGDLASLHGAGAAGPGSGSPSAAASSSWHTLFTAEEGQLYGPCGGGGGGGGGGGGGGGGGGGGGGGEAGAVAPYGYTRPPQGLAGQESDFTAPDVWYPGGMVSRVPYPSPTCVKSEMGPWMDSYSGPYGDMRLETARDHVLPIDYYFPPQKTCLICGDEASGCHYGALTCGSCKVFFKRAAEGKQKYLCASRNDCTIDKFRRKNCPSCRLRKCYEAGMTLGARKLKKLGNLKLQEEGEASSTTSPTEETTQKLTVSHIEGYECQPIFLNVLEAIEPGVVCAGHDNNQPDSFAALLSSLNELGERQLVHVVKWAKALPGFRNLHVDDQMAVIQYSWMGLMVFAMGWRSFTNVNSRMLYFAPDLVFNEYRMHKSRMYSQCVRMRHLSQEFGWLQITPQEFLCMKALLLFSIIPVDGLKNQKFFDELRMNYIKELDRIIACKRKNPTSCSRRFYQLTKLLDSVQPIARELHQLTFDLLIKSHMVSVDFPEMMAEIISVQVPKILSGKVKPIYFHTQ

[2] = Cmax in rat at 20 mg/kg, iv by LC-MS/MS analysis; assay type: ADME, organism-based; conditions: in vivo
[3] = Observed apparent volume of distribution during terminal phase in rat at 20 mg/kg, po by LC-MS/MS analysis; assay type: ADME, organism-based; conditions: in vivo, read-out: Vz/F_obs
[4] = MRTlast in rat at 20 mg/kg, po by LC-MS/MS analysis; assay type: ADME, organism-based; conditions: in vivo
[5] = AUC (0 to t) in rat at 20 mg/kg, iv by LC-MS/MS analysis; assay type: ADME, organism-based; conditions: in vivo
[6] = Microsomal stability in monkey liver microsome assessed as half life measured upto 60 mins in presence of NADPH and UDPGA by HPLC-MS/MS analysis; assay type: ADME, Macaca mulatta; conditions: rhesus monkey, liver microsomes
[7] = Antiproliferative activity against human WPMY-1 cells assessed as reduction in cell viability upto 2 uM incubated for 3 days by MTT assay; assay type: toxicity, cell-based; conditions: wpmy-1, 72 h, time 3 day
[8] = Microsomal stability in rat liver microsome assessed as parent compound remaining at 60 mins in presence of NADPH and UDPGA by HPLC-MS/MS analysis; assay type: ADME; conditions: liver microsomes, read-out: Stability
[9] = Microsomal stability in Beagle dog liver microsome assessed as half life measured upto 60 mins in presence of NADPH and UDPGA by HPLC-MS/MS analysis; assay type: ADME, Canis lupus familiaris; conditions: liver microsomes
[10] = Oral bioavailability in rat at 20 mg/kg by LC-MS/MS analysis; assay type: ADME, organism-based; conditions: in vivo
[11] = Toxicity in male CB17.SCID mouse implanted with human LNCaP cells assessed as body weight loss at 40 mg/kg, po measured upto 30 days; assay type: organism-based; conditions: in vivo, 720 h, time < 30 day
[12] = Microsomal stability in human liver microsome assessed as parent compound remaining at 60 mins in presence of NADPH and UDPGA by HPLC-MS/MS analysis; assay type: ADME; conditions: liver microsomes, read-out: Stability
[13] = molecular target: T1, Androgen receptor (Homo sapiens, UniProt P10275); assay: Antagonist activity at Androgen receptor in human LNCaP cells transfected with ARR2PB-eGFP incubated for 3 days by synergy H1 microplate reader analysis; assay type: cell-based
T1 sequence (P10275 whole entry): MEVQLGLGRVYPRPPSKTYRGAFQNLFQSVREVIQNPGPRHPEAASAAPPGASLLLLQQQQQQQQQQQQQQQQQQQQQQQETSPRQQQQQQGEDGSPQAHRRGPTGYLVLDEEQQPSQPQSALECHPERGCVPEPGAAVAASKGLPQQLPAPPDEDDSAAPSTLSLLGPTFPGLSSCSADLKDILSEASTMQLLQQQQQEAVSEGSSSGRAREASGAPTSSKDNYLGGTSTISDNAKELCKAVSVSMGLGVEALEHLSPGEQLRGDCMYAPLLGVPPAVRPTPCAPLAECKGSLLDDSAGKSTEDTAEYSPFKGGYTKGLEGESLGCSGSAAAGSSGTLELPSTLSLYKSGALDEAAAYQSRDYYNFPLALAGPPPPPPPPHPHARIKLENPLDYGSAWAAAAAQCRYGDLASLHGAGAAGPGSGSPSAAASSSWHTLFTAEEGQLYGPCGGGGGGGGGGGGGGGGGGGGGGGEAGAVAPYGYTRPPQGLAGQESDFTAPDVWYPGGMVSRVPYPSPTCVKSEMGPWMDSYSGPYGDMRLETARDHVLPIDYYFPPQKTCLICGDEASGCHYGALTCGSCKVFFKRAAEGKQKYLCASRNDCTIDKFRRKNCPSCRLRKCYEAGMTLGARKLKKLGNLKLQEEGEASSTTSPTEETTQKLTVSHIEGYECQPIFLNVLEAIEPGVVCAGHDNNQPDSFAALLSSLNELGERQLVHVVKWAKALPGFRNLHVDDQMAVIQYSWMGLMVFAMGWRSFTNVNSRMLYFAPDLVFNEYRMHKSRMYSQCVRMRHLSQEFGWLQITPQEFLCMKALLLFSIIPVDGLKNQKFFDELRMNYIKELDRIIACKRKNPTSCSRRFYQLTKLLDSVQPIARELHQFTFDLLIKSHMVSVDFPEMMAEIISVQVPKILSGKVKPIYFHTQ

[14] = Cmax in rat at 20 mg/kg, po by LC-MS/MS analysis; assay type: ADME, organism-based; conditions: in vivo
[15] = molecular target: hERG (KCNH2) (Homo sapiens, UniProt Q12809); assay: Inhibition of hERG at 10 uM relative to control; assay type: toxicity
Chain of hERG (KCNH2) (Q12809 whole entry): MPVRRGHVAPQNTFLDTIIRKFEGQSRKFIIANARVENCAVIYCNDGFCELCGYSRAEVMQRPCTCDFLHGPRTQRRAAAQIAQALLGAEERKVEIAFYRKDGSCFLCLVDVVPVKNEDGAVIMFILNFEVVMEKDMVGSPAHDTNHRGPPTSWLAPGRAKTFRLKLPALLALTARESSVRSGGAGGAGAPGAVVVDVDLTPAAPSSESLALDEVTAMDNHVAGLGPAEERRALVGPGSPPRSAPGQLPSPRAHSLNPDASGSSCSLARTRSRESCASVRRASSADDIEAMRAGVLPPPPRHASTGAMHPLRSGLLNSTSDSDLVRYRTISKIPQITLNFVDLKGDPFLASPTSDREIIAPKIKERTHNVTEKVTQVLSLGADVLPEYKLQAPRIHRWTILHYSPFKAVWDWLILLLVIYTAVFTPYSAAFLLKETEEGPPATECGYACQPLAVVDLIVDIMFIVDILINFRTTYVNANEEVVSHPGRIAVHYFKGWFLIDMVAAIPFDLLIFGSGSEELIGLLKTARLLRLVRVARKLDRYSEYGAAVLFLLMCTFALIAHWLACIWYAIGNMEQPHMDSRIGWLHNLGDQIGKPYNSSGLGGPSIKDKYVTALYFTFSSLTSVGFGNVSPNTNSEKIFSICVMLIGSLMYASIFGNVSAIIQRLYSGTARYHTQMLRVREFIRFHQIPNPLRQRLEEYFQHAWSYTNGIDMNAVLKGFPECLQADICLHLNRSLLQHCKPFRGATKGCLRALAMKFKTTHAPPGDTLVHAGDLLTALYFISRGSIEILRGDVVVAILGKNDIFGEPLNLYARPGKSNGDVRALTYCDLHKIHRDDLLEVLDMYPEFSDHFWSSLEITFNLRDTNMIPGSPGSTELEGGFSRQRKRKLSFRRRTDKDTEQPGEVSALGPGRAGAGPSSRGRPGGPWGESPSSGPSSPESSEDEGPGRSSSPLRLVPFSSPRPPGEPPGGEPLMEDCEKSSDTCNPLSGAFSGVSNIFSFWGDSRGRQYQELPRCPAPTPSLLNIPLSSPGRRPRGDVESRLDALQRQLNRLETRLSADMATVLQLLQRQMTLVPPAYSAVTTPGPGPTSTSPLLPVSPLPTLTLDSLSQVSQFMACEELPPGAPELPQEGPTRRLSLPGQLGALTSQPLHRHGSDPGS

[16] = Microsomal stability in monkey liver microsome assessed as intrinsic clearance measured upto 60 mins in presence of NADPH and UDPGA by HPLC-MS/MS analysis; assay type: ADME, Macaca mulatta; conditions: rhesus monkey, liver microsomes, read-out: CLH
[17] = Tmax in rat at 20 mg/kg, po by LC-MS/MS analysis; assay type: ADME, organism-based; conditions: in vivo
[18] = AUC (0 to t) in rat at 20 mg/kg, po by LC-MS/MS analysis; assay type: ADME, organism-based; conditions: in vivo
[19] = molecular target: T2, Progesterone receptor (Homo sapiens, UniProt P06401); assay: Agonist activity at progesterone receptor (unknown origin)
T2 sequence (P06401 whole entry): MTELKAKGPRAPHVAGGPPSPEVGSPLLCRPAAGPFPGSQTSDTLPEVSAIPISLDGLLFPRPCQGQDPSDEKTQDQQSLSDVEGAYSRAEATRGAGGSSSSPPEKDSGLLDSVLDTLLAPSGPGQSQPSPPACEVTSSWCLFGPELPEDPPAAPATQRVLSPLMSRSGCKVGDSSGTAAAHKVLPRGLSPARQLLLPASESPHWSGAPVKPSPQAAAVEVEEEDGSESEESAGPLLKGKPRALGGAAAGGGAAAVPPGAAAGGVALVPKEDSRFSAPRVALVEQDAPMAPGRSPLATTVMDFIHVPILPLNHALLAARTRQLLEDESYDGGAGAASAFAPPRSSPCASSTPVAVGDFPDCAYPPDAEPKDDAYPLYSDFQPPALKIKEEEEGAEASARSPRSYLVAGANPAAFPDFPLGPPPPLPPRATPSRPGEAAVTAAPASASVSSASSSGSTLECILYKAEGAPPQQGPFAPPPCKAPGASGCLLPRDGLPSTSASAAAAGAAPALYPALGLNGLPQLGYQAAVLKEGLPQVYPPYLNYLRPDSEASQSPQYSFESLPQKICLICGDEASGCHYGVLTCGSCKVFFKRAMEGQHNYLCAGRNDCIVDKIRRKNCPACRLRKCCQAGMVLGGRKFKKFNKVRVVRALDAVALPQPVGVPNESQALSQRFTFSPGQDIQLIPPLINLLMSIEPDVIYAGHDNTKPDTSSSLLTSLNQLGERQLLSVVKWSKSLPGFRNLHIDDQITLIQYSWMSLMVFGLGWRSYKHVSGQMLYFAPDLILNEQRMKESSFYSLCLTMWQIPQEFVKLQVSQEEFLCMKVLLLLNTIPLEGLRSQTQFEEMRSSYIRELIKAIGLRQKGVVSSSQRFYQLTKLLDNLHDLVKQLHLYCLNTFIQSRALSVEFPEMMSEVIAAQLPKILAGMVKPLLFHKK

## Cc1oc(-c2cccc(C(F)(F)F)c2)cc1C(=O)Nc1nc(CN2CCOCC2)ns1
[1]
  pIC50: 8.00
[2]
  Cmax: 8450 ng/mL
[3]
  Vd/F: 11.1 L/kg
[4]
  MRT last: 6.65 h
[5]
  AUC(0-t): 32000 ng·h/mL
[6]
  half-life: 1.58 h
[7]
  Activity: Non-toxic
[8]
  remaining at 1 h: 22.5%
[9]
  half-life: 0.367 h
[10]
  bioavailability: 61.5%
[11]
  Activity: Non-toxic
[12]
  remaining at 1 h: 29.7%
[13]
  pIC50: 7.74
[14]
  Cmax: 1880 ng/mL
[15]
  inhibition at 10 µM: 20.7%
[16]
  microsomal CLint: 7.3 µL/min/mg
[17]
  Tmax: 3.33 h
[18]
  AUC(0-t): 20500 ng·h/mL
[19]
  pIC50: < 5.00
